Assay results from patent US20180273538A1, “PYRROLO[2,3-d]PYRIMIDINE DERIVATIVES, A PROCESS FOR THEIR PREPARATION AND PHARMACEUTICAL COMPOSITIONS CONTAINING THEM” (LES LABORATOIRES SERVIER, priority 2015, published 2018).

Assays:
DYRK1B = target: T1, DYRK1B (Homo sapiens, UniProt Q9Y463); assay: Kinase TR-FRET assay, DYRK1B; format: biochemical
T1 construct: full-length human kinases from Carna Biosciences; purchased Carna Biosciences 04-131

CLK1 = target: T2, CLK1 (Homo sapiens, UniProt P49759); assay: Kinase TR-FRET assay, CLK1; format: biochemical
T2 construct: full-length human kinases from Carna Biosciences; purchased Carna Biosciences 04-126
T2 sequence (P49759 1-526 isoform P49759-3): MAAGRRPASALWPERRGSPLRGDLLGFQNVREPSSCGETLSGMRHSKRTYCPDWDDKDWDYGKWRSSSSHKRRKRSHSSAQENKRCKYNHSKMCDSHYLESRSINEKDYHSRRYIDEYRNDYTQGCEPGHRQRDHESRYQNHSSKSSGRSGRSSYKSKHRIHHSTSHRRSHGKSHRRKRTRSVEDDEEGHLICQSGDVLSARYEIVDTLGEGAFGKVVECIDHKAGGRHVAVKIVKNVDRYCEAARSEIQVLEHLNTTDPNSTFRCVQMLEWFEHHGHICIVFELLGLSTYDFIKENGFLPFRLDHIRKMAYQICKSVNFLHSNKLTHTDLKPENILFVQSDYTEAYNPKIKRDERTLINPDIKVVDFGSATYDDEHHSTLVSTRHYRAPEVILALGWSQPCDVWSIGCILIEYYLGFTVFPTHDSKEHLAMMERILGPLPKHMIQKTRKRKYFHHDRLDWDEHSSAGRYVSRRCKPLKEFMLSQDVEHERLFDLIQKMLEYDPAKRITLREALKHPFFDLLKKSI

[1] = target: T3, His-TEV-DYRK1A Kinase domain (aa127-485) (Homo sapiens, UniProt Q13627); assay: Kinase ADP assay (ADP Hunter Plus); format: biochemical
T3 construct: His-TEV-DYRK1A Kinase domain (aa127-485); His (N); TEV cleavage site (N)

phospho-Ser520-DYRK1A = target: T4, phospho-Ser520-DYRK1A (Homo sapiens, UniProt Q13627); assay: Cellular DYRK1A autophosphorylation assay in U2-OS cells; format: cell-based; conditions: 5 hours exposure, read-out: IC50 (μM) P-Ser520-Dyrk1A-Cell assay
T4 construct: full-length, wild-type human DYRK1A (NM_001396) with an HA tag; expressed in transfected cells; host or cells: human U2-OS osteosarcoma cells, pcDNA3.1 plasmid

DYRK1A = target: T5, DYRK1A (Homo sapiens, UniProt Q13627); assay: Kinase TR-FRET assay, DYRK1A; format: biochemical
T5 construct: full-length human kinases from Carna Biosciences; purchased Carna Biosciences 04-130

T1 sequence (Q9Y463 whole entry): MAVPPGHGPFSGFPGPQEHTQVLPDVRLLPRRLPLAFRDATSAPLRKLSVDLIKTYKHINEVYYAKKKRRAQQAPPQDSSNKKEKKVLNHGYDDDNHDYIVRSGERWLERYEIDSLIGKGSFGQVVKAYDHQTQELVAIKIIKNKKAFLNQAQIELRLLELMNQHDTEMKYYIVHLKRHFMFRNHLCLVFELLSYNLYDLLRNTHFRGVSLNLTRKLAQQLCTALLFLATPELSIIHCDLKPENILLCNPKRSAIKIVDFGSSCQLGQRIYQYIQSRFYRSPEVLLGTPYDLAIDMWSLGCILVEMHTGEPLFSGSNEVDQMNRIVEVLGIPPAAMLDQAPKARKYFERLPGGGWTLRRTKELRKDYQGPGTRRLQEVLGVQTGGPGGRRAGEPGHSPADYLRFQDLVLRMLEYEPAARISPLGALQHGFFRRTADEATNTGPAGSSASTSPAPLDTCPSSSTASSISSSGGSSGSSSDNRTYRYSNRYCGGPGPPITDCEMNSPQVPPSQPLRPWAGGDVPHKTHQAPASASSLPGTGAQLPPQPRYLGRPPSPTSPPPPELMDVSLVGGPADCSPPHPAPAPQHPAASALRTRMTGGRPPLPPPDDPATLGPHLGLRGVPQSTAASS

SMILES | IC50 (DYRK1B) | IC50 (CLK1) | IC50 [1] | IC50 (phospho-Ser520-DYRK1A) | IC50 (DYRK1A)
Cc1nc(NCc2c(F)cccc2F)c2c(-c3ccnc(N)n3)c[nH]c2n1 [Example 206, 5-(2-aminopyrimidin-4-yl)-N-(2,6-difluorobenzyl)-2-methyl-7H-pyrrolo[2,3-d]pyrimidin-4-amine] | 0.0133 µM | 0.0238 µM |  |  | 
Cc1nc(NCC(F)(F)c2ccccc2)c2c(-c3ccnc(N)c3)c[nH]c2n1 [Example 123, 5-(2-aminopyridin-4-yl)-N-(2,2-difluoro-2-phenylethyl)-2-methyl-7H-pyrrolo[2,3-d]pyrimidin-4-amine] |  | 0.0615 µM | 0.071 µM |  | 
Cc1nc(NCc2ncccc2C(F)(F)F)c2c(-c3ccnc(N)c3)c[nH]c2n1 [Example 78, 5-(2-aminopyridin-4-yl)-2-methyl-N-{[3-(trifluoromethyl)pyridin-2-yl]methyl}-7H-pyrrolo[2,3-d]pyrimidin-4-amine] | 0.0145 µM | 0.0293 µM | 0.01 µM | 0.0721 µM | 0.0013 µM
Cc1nc(-c2ccccc2)c2c(-c3ccnc(N)c3)c[nH]c2n1 [Example 163] |  | 0.104 µM | 0.026 µM | 0.197 µM | 
Cc1nc(NCc2c(C)cccc2Cl)c2c(-c3ccnc(N)c3)c[nH]c2n1 [Example 58, 5-(2-aminopyridin-4-yl)-N-(2-chloro-6-methylbenzyl)-2-methyl-7H-pyrrolo[2,3-d]pyrimidin-4-amine] | 0.0175 µM | 0.0245 µM | 0.01 µM | 0.0337 µM | 0.0215 µM
Cc1nc(N2CCc3sccc3C2)c2c(-c3ccnc(N)c3)c[nH]c2n1 [Example 108, 4-[4-(6,7-dihydrothieno[3,2-c]pyridin-5(4H)-yl)-2-methyl-7H-pyrrolo[2,3-d]pyrimidin-5-yl]pyridin-2-amine] | 0.0092 µM | 0.0283 µM | 0.009 µM | 0.0491 µM | 0.0027 µM
Cc1nc(NCc2cc(C)on2)c2c(-c3ccnc(N)c3)c[nH]c2n1 [Example 59, 5-(2-aminopyridin-4-yl)-2-methyl-N-[(5-methyl-1,2-oxazol-3-yl)methyl]-7H-pyrrolo[2,3-d]pyrimidin-4-amine] | 0.0191 µM |  | 0.042 µM | 0.259 µM | 0.0102 µM
Cc1nc(-c2cc3cccc(Cl)c3s2)c2c(-c3ccnc(N)c3)c[nH]c2n1 [Example 185] | 0.0158 µM | 0.0631 µM | 0.011 µM | 0.012 µM | 0.0048 µM
Cc1nc(NCc2c(F)cncc2F)c2c(-c3ccnc(N)c3)c[nH]c2n1 [Example 119, 5-(2-aminopyridin-4-yl)-N-[(3,5-difluoropyridin-4-yl)methyl]-2-methyl-7H-pyrrolo[2,3-d]pyrimidin-4-amine] | 0.0192 µM | 0.0828 µM | 0.02 µM | 0.232 µM | 0.0066 µM
Cc1nc(NCc2c(Cl)cccc2Cl)c2c(-c3ccnc(N)c3)c[nH]c2n1 [Example 61, 5-(2-aminopyridin-4-yl)-N-(2,6-dichlolorobenzyl)-2-methyl-7H-pyrrolo[2,3-d]pyrimidin-4-amine] | 0.0029 µM | 0.0129 µM | 0.01 µM | 0.0115 µM | 0.0062 µM
Cc1nc(N2CCc3ccccc3C2)c2c(-c3cc(N)nc(N)c3)c[nH]c2n1 [Example 114, 4-[4-(3,4-dihydroisoquinolin-2(1H)-yl)-2-methyl-7H-pyrrolo[2,3-d]pyrimidin-5-yl]pyridine-2,6-diamine] |  | 0.0162 µM | 0.009 µM | 0.006 µM | 
Cc1nc(NCc2ccccc2C(F)(F)F)c2c(-c3ccnc(N)c3)c[nH]c2n1 [Example 64, 5-(2-aminopyridin-4-yl)-2-methyl-N-[2-(trifluoromethyl)benzyl]-7H-pyrrolo[2,3-d]pyrimidin-4-amine] | 0.0093 µM |  | 0.015 µM | 0.234 µM | 0.0059 µM
Cc1nc(COc2c(F)cccc2F)c2c(-c3ccnc(N)c3)c[nH]c2n1 [Example 166] |  | 0.248 µM | 0.025 µM | 0.118 µM | 
Cc1nc(CN2CCc3ccccc32)c2c(-c3ccnc(N)c3)c[nH]c2n1 [Example 178, 4-[4-(2,3-dihydro-1H-indol-1-ylmethyl)-2-methyl-7H-pyrrolo[2,3-d]pyrimidin-5-yl]pyridin-2-amine] | 0.0141 µM | 0.18 µM | 0.013 µM | 0.0782 µM | 0.0052 µM
COc1ccccc1[C@H](C)Nc1nc(C)nc2[nH]cc(-c3cc(N)nc(N)c3)c12 [Example 117, 4-(4-{[(1S}-1-(2-methoxyphenyl)ethyl]amino}-2-methyl-7H-pyrrolo[2,3-d]pyrimidin-5-yl)pyridine-2,6-diamine] | 0.0093 µM | 0.0195 µM | 0.01 µM | 0.0377 µM | 0.0059 µM
Cc1nc(NC2Cc3ccccc3C2)c2c(-c3ccnc(N)c3)c[nH]c2n1 [Example 99, 5-(2-aminopyridin-4-yl)-N-(2,3-dihydro-1H-inden-2-yl)-2-methyl-7H-pyrrolo[2,3-d]pyrimidin-4-amine] | 0.0293 µM | 0.0549 µM | 0.029 µM | 0.192 µM | 0.0086 µM
COc1ccccc1[C@H](C)Nc1nc(C)nc2[nH]cc(-c3ccnc(N)c3)c12 [Example 106, 5-(2-aminopyridin-4-yl)-N-[(1S)-1-(2-methoxyphenyl)ethyl]-2-methyl-7H-pyrrolo[2,3-d]pyrimidin-4-amine] |  | 0.0171 µM | 0.018 µM | 0.177 µM | 
Cc1nc(-c2cc3ccccc3[nH]2)c2c(-c3ccnc(N)c3)c[nH]c2n1 [Example 161] | 0.0252 µM | 0.122 µM | 0.028 µM | 0.15 µM | 0.0091 µM
Cc1nc(NCc2ncccc2F)c2c(-c3ccnc(N)c3)c[nH]c2n1 [Example 71, 5-(2-aminopyridin-4-yl)-N-[(3-fluoropyridin-2-yl)methyl]-2-methyl-7H-pyrrolo[2,3-d]pyrimidin-4-amine] | 0.0074 µM | 0.0237 µM |  |  | 
Cc1cc(-c2ccc3c(c2)OCCO3)c2c(-c3ccnc(N)c3)c[nH]c2n1 [Example 217, 4-[4-(2,3-dihydro-1,4-benzodioxin-6-yl)-6-methyl-1H-pyrrolo[2,3-b]pyridin-3-yl]pyridin-2-amine] | 0.0077 µM | 0.0261 µM | 0.01 µM | 0.0385 µM | 0.0027 µM
Cc1nc(NCc2cccc(F)c2F)c2c(-c3ccnc(N)c3)c[nH]c2n1 [Example 74, 5-(2-aminopyridin-4-yl)-N-(2,3-difluorobenzyl)-2-methyl-7H-pyrrolo[2,3-d]pyrimidin-4-amine] |  | 0.0184 µM | 0.014 µM | 0.111 µM | 0.0012 µM
Cc1nc(-c2ccc3c(c2)OCO3)c2c(-c3ccnc(N)c3)c[nH]c2n1 [Example 179] | 0.0115 µM | 0.0425 µM |  |  | 
Cc1nc(NCc2cccc(Cl)c2Cl)c2c(-c3ccnc(N)c3)c[nH]c2n1 [Example 81, 5-(2-aminopyridin-4-yl)-N-(2,3-dichlorbenzyl)-2-methyl-7H-pyrrolo[2,3-d]pyrimidin-4-amine] | 0.0141 µM |  | 0.014 µM | 0.166 µM | 0.0085 µM
Cc1nc(OCc2cc(C)on2)c2c(-c3ccncc3)c[nH]c2n1 [Example 16, 2-methyl-4-[(5-methyl-1,2-oxazol-3-yl)methoxy]-5-(pyridin-4-yl)-7H-pyrrolo[2,3-d]pyrimidine] | 0.0178 µM | 0.0328 µM | 0.011 µM | 0.14 µM | 0.0149 µM
Cc1cc(NCc2c(F)cccc2F)c2c(-c3ccnc(N)c3)c[nH]c2n1 [Example 213, 3-(2-aminopyridin-4-yl)-N-(2,6-difluorobenzyl)-6-methyl-1H-pyrrolo[2,3-b]pyridin-4-amine] | 0.0092 µM | 0.0172 µM | 0.008 µM | 0.057 µM | 0.0026 µM
COc1cccnc1CNc1nc(C)nc2[nH]cc(-c3ccnc(N)c3)c12 [Example 98, 5-(2-aminopyridin-4-yl)-N-[(3-methoxypyridin-2-yl)methyl]-2-methyl-7H-pyrrolo[2,3-d]pyrimidin-4-amine] |  | 0.0241 µM | 0.022 µM | 0.192 µM | 
COc1cccc(F)c1CNc1nc(C)nc2[nH]cc(-c3cc(N)nc(N)c3)c12 [Example 116, 4-{4-[(2-fluoro-6-methoxybenzyl)amino]-2-methyl-7H-pyrrolo[2,3-d]pyrimidin-5-yl}pyridine-2,6-diamine] |  | 0.0136 µM | 0.005 µM | 0.0009 µM | 
COc1cccc(-c2nc(C)nc3[nH]cc(-c4ccnc(N)c4)c23)c1 [Example 167] |  | 0.042 µM | 0.015 µM | 0.0444 µM | 
COc1cccc(C(F)(F)F)c1CNc1nc(C)nc2[nH]cc(-c3ccnc(N)c3)c12 [Example 80, 5-(2-aminopyridin-4-yl)-N-[2-methoxy-6-(trifluoromethyl)benzyl]-2-methyl-7H-pyrrolo[2,3-d]pyrimidin-4-amine] | 0.0106 µM |  | 0.004 µM | 0.0156 µM | 0.0059 µM
CCOc1ccccc1CNc1nc(C)nc2[nH]cc(-c3ccnc(N)c3)c12 [Example 79, 5-(2-aminopyridin-4-yl)-N-(2-ethoxybenzyl)-2-methyl-7H-pyrrolo[2,3-d]pyrimidin-4-amine] | 0.008 µM |  | 0.008 µM | 0.105 µM | 0.0021 µM
